In PubChem BioAssay AID2742 (NMMLSC, 2010) one finds GFP fluorescence (kMESF), higher = increase data, which are given here for 54 molecules.

SMILES strings stand for the structures. Several values for one entry are separate records, joined by “and”; a condition that tells them apart may be missing. Equal values may be shown once. Activity calls are given as the source filed them.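 Rule for the calls: active = fitted half-maximal concentration for changing background-corrected GFP signal at or below a set limit; inactive = the rest.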

This test can be described thus: TOR pathway reporter MEP2-GFP, concentration series – S. cerevisiae, flow cytometry GFP, MLPCN hits, dose response (AID 2742).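 Note: GFP tag reports level of MEP2 protein as a downstream target of TOR signalling.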 The following applies: S. cerevisiae MEP2-GFP strain, flow cytometry fluorescence, 3 h; at 33 µM (top of the series). On the technique in general: A flow cytometer gives signals particle by particle.
For `O=S(=O)(/N=C(\Sc1ccc(Cl)cc1)c1ccccc1)c1ccccc1`, the GFP fluorescence (kMESF), higher = increase is 4.33 kMESF (inactive). Turning to `O=C(Oc1oc(-c2ccco2)nc1C=Nc1ccccc1)c1ccoc1`, the GFP fluorescence (kMESF), higher = increase was 4.11 kMESF (inactive). Consider `Cc1cc(C2CCCCC2)n(O)c(=O)c1`, for which the GFP fluorescence (kMESF), higher = increase is 5.36 kMESF (inactive). In the case of `CCOC(=O)CSC1=NC(=O)/C(=C\c2ccc(Cl)cc2)S1`, the GFP fluorescence (kMESF), higher = increase was 4.12 kMESF (inactive). `CCOc1ccc(C(Nc2cccnc2)c2cc(Cl)c3cccnc3c2O)cc1` (centres undefined): the GFP fluorescence (kMESF), higher = increase was 4.24 kMESF (inactive).

For the molecule `CC(=O)SC(C[N+](=O)[O-])c1cn(C(C)=O)c2ccccc12` (centres undefined), the GFP fluorescence (kMESF), higher = increase is 6.37 kMESF (inactive). On to `C/C(=N\Nc1ncnc2sc(C)c(C)c12)c1ccccn1`, for which the GFP fluorescence (kMESF), higher = increase is 38.2 kMESF (inactive). The same measure for `O=C(CCc1ccccc1)NNC(=S)NC(=O)c1ccccc1`: 5.56 kMESF (inactive); for `O=C(Nc1cccc(-c2csc(Nc3ccccc3)n2)c1)c1ccccc1`: 2.61 kMESF (inactive). Regarding `O=C(Nc1nc2ccc(F)cc2s1)c1ccccn1`, the GFP fluorescence (kMESF), higher = increase was 3.71 kMESF (inactive). With `CCCCS(=O)(=O)/C=C\C=C/S(=O)(=O)CCCC`, the GFP fluorescence (kMESF), higher = increase was 5.41 kMESF (inactive). The same measure for `Cn1ncc2c(O/N=C(\N)c3ccc(C(C)(C)C)cc3)ncnc21`: 3.78 kMESF (inactive); for `O=C1NC(=O)N(Cc2ccco2)C(=O)/C1=C/c1ccc(-c2cccc([N+](=O)[O-])c2)o1`: 4.33 kMESF (inactive); for `Cc1nc2ccc(NC(=O)c3oc4ccc(F)cc4c3C)cc2s1`: 2.07 kMESF (inactive).

Regarding `Cn1ncc(S(=O)(=O)Cc2ccccc2)c(Cl)c1=O`, the GFP fluorescence (kMESF), higher = increase was 4.57 kMESF (inactive). For the molecule `Cc1ccc(C(=O)Oc2oc(-c3ccco3)nc2C=Nc2ccc(Cl)cc2)cc1`, the GFP fluorescence (kMESF), higher = increase is 3.92 kMESF (inactive).

As to `O=C1/C(=C\c2ccc(O)c(O)c2)SC(=S)N1Cc1ccccc1`, the GFP fluorescence (kMESF), higher = increase is -21.1 kMESF (inactive). As to `O=C1N(c2ccccc2C(F)(F)F)O[C@]1(c1ccccc1)C1CCCC1`, the GFP fluorescence (kMESF), higher = increase is 2.4 kMESF (inactive). As to `O=C1C=CC(=O)N1c1ccc(OC(F)F)cc1`, the GFP fluorescence (kMESF), higher = increase is 3.81 kMESF (inactive). The same measure for `C#CCOCCOCCOCCNc1nc(N2CCN(C(=O)CCCCCCCCCCNC(=O)[C@H](CCCCN)n3cc(C)nn3)CC2)nc(N2CCN(C(=O)CCCCCCCCCCNC(=O)[C@H](CCCN=C(N)N)n3cc(C[C@@H](C)CC)nn3)CC2)n1`: 3.34 kMESF (inactive). Turning to `COc1ccc2c(/C=C/c3cc[n+](C)cc3)c[nH]c2c1`, the GFP fluorescence (kMESF), higher = increase was 4.86 kMESF (inactive). With `O=C(CSC1=NS(=O)(=O)c2ccccc21)Nc1ccccc1`, the GFP fluorescence (kMESF), higher = increase is 2.66 kMESF (inactive). `Cc1nn2c(NCc3ccccn3)c3c(nc2c1-c1ccccc1)CCC3`: the GFP fluorescence (kMESF), higher = increase was 2.73 kMESF (inactive). The same measure for `Cc1ccc(C(=O)Oc2oc(-c3ccccc3)nc2C=Nc2ccc(N(C)C)cc2)cc1`: 4.19 kMESF (inactive).

Consider `Cc1ccccc1[C@@]1(C)ON(c2ccccc2C(F)(F)F)C1=O`, for which the GFP fluorescence (kMESF), higher = increase was 3.31 kMESF (inactive). With `O=C(CS(=O)c1ccccc1[N+](=O)[O-])Oc1ccc(Br)cc1` (centres undefined), the GFP fluorescence (kMESF), higher = increase is 4.43 kMESF (inactive). The same measure for `O=C(Nc1nnc(-c2ccc(F)cc2)o1)c1cccc([N+](=O)[O-])c1`: 2.99 kMESF (inactive). Consider `COc1cc(/C=C2/C(=O)c3cccc([N+](=O)[O-])c3C2=O)c(Br)cc1O`, for which the GFP fluorescence (kMESF), higher = increase is 3.18 kMESF (inactive).

For the molecule `Nc1ccccc1SC(C[N+](=O)[O-])c1ccccc1` (centres undefined), the GFP fluorescence (kMESF), higher = increase was 3.67 kMESF (inactive).

As for `CN(C)C(=O)Oc1ccnc2cc(Cl)ccc12`, the GFP fluorescence (kMESF), higher = increase was 3.58 kMESF (inactive). Take `CCCOc1ccc(C(=O)NNC(=S)NC(=O)c2ccco2)cc1`: the GFP fluorescence (kMESF), higher = increase is 4.58 kMESF (inactive). For the molecule `O=C(O)c1ccn2c(C(=O)c3ccccc3)c(-c3ccccc3)cc2c1`, the GFP fluorescence (kMESF), higher = increase was 3.13 kMESF (inactive). Turning to `Cc1[nH]c(-c2ccccn2)nc(=S)c1Cl`, the GFP fluorescence (kMESF), higher = increase was 4.24 kMESF (inactive). The same measure for `Cc1ccc(C(=O)NNC(=S)NC(=O)COc2ccccc2)cc1`: 6.29 kMESF (inactive); for `O=[N+]([O-])c1ccc(O)c(/C=N/Nc2ccccn2)c1`: 5.62 kMESF (inactive); for `COc1ccc(N=Cc2nc(-c3ccccc3)oc2OC(=O)c2ccccc2)cc1`: 2.68 kMESF (inactive). For the molecule `CCc1nc2ccccc2c(=O)n1NC(=O)c1c(O)c2ccccc2n(CC)c1=O`, the GFP fluorescence (kMESF), higher = increase is 2.98 kMESF (inactive). As for `O=C(C#Cc1ccccc1)c1cccc([N+](=O)[O-])c1`, the GFP fluorescence (kMESF), higher = increase was 4.67 kMESF (inactive). With `O=C(O)/C=C/C(=O)c1ccc2c(c1)CCc1ccccc1-2`, the GFP fluorescence (kMESF), higher = increase was 4.6 kMESF (inactive). For the molecule `O=C(NNC(=S)NC(=O)C12CC3CC(CC(C3)C1)C2)c1ccncc1`, the GFP fluorescence (kMESF), higher = increase is 6.72 kMESF (inactive). In the case of `[O-][n+]1cccc2c(Br)cc(Br)c(O)c21`, the GFP fluorescence (kMESF), higher = increase was 5.76 kMESF (inactive). The same measure for `C=C1C(O)[C@@H]2O[C@]3(CC[C@H](/C=C/C(C)[C@@H]4CC(C)=CC5(O[C@H](C[C@@](C)(O)C(=O)O)CCC5O)O4)O3)CC[C@H]2O[C@@H]1C(O)CC(C)[C@H]1OC2(CCCCO2)CCC1C` (some centres undefined): 1.77 kMESF (inactive); for `COc1ccc(N2C(=O)CC(Sc3ncn[nH]3)C2=O)c(OC)c1` (centres undefined): 3.82 kMESF (inactive); for `Cc1ccccc1C(=O)NNC(=S)NC(=O)c1ccc(Cl)cc1Cl`: 6.21 kMESF (inactive).

For the molecule `CS(=O)(=O)c1sc(C#N)c2c1C(=O)CC(c1ccccc1)C2` (centres undefined), the GFP fluorescence (kMESF), higher = increase was 4.8 kMESF (inactive). In the case of `COc1cc(N=c2ssnc2Cl)c(OC)cc1Cl`, the GFP fluorescence (kMESF), higher = increase is 6.31 kMESF (inactive) and 6.98 kMESF (inactive).

For the molecule `CC(Oc1ccc(Cl)cc1)C(=O)NNC(=S)NC(=O)c1ccco1` (centres undefined), the GFP fluorescence (kMESF), higher = increase is 5.05 kMESF (inactive). With `Clc1cnc(N/N=C/c2cccs2)c(Cl)c1`, the GFP fluorescence (kMESF), higher = increase was 2.89 kMESF (inactive). Take `O=C(/C=C/c1ccc(Cl)c([N+](=O)[O-])c1)c1cccnc1`: the GFP fluorescence (kMESF), higher = increase was 3.17 kMESF (inactive). `O=C(C#Cc1ccccc1)c1ccco1`: the GFP fluorescence (kMESF), higher = increase is 5.37 kMESF (inactive). The same measure for `Nc1ccc2ccc3cccc[n+]3c2c1`: 5.03 kMESF (inactive); for `O=C(Oc1c(Cl)cc(Cl)c2cccnc12)c1cccs1`: 3.47 kMESF (inactive).

Take `O=C(Oc1oc(-c2ccco2)nc1C=Nc1ccc(Cl)cc1)c1ccco1`: the GFP fluorescence (kMESF), higher = increase is 3.6 kMESF (inactive).

As to `CCn1c(/C=C/c2ccc([N+](=O)[O-])o2)nc2ccccc2c1=O`, the GFP fluorescence (kMESF), higher = increase was 2.26 kMESF (inactive).
